Read-outs that look alike come from different tables or passages of the source. Starred links: 1 amine or outer side, 2 acyl side, 3 side chain; linkers in the order of their positions; H or OH if unused. Non-standard residues stand in square brackets, D forms with d. Residues, ends and D or L forms follow the SMILES beside them. Groups on a side chain read outwards from the residue. *: point of attachment. C20 diacid = O=C(O)CCCCCCCCCCCCCCCCCCC(=O)*; C18 diacid = O=C(O)CCCCCCCCCCCCCCCCC(=O)*; γGlu = O=C(O)[C@H](CCC(=O)[*:2])N[*:1]; αMeF = C[C@](N)(Cc1ccccc1)C(=O)O; AEEA = NCCOCCOCC(=O)O; Aib = CC(C)(N)C(=O)O
How the values were obtained:
[1] = target: human GLP-1 receptor (hGLP-1R) (Homo sapiens, UniProt P43220); assay: cAMP production (HTRF) in CHO cells expressing hGLP-1R; type: cell-based; design: expressed in transfected cells; conditions: for EC50: cAMP, CHO cells, 0.1% BSA, geometric mean, read-out: hGLP-1R EC50
human GLP-1 receptor (hGLP-1R), sequence (P43220 24-463): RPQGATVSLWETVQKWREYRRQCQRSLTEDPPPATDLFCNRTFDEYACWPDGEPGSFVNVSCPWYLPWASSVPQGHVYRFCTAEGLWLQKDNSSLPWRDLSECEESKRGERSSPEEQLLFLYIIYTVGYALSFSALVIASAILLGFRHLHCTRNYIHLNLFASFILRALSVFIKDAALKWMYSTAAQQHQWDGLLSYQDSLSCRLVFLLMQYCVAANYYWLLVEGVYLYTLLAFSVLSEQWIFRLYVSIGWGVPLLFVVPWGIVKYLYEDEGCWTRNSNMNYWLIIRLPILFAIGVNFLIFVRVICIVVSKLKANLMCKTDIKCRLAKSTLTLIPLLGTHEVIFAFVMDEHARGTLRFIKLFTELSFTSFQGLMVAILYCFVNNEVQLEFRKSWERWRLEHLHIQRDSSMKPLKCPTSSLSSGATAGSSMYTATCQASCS
Outline: (§1)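 Read-out: HTRF cAMP (anti-cAMP cryptate donor, cAMP-d2 acceptor in conjugate/lysis buffer), converted to % Delta F and fitted by 4-parameter logistic for EC50. Cell densities were 1×10^5 cells/mL (hGLP-1R) or 2×10^5 cells/mL (hGCGR). Stimulation lasted 30 min at room temperature.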

[2] = target: human glucagon receptor (hGCGR) (Homo sapiens, UniProt P47871); assay: cAMP production (HTRF) in CHO cells expressing hGCGR; type: cell-based; design: expressed in transfected cells; conditions: cAMP, CHO cells, 0.1% BSA, geometric mean
human glucagon receptor (hGCGR), sequence (P47871 26-477): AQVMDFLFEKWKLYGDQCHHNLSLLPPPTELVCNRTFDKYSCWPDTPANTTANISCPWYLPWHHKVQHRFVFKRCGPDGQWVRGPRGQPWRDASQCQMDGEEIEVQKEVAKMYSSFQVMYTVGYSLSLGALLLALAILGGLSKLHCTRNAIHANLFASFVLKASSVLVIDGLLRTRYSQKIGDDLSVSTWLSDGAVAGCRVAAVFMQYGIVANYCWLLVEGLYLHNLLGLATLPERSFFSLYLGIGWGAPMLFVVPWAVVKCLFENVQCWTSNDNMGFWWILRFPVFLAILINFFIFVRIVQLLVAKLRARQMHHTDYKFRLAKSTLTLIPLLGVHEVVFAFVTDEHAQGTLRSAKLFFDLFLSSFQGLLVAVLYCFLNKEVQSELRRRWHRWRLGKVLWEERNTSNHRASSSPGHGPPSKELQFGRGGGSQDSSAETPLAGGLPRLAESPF
Outline: as §1

[3] = % GLP-1R activity relative to GLP-1 / % GlucR activity relative to glucagon

Row | SMILES | % Relative Potency Ratio [1, 3] | EC50 [1] | EC50 ([2]; read-out: hGluc-R EC50) | % Relative Potency Ratio [1] | EC50 ([2]; hGluc-R EC50 (pM))
1 | CC[C@H](C)[C@H](NC(=O)[C@H](Cc1c[nH]c2ccccc12)NC(=O)[C@H](CCCCNC(=O)COCCOCCNC(=O)COCCOCCNC(=O)CC[C@H](NC(=O)CC[C@H](NC(=O)CCCCCCCCCCCCCCCCC(=O)O)C(=O)O)C(=O)O)NC(=O)[C@@H](NC(=O)[C@H](Cc1ccccc1)NC(=O)[C@H](CC(=O)O)NC(=O)[C@H](CCC(N)=O)NC(=O)[C@H](C)NC(=O)[C@H](C)NC(=O)[C@H](CCCNC(=N)N)NC(=O)[C@H](CO)NC(=O)[C@H](CC(=O)O)NC(=O)[C@H](CC(C)C)NC(=O)[C@](C)(Cc1ccccc1)NC(=O)[C@H](CCCCN)NC(=O)[C@H](CO)NC(=O)[C@@H](NC(=O)[C@H](CC(=O)O)NC(=O)[C@H](CO)NC(=O)[C@@H](NC(=O)[C@](C)(Cc1ccccc1)NC(=O)[C@H](CO)NC(=O)CNC(=O)[C@H](Cc1c[nH]cn1)NC(=O)C(C)(C)NC(=O)[C@@H](N)Cc1c[nH]cn1)[C@@H](C)O)C(C)C)C(C)C)C(=O)N[C@@H](C)C(=O)N[C@@H](CC(N)=O)C(=O)N[C@H](C(N)=O)[C@@H](C)O [Peptide 362] (H-H[Aib]HGS[αMeF]TSDVSK[αMeF]LDSRAAQDFVK([AEEA-AEEA-γGlu-γGlu-C18 diacid])WIANT-NH2; N-terminus assumed) | 1.5 | 0.0548 nM | 42.8 pM |  | 
2 | CC[C@H](C)[C@H](NC(=O)[C@H](Cc1c[nH]c2ccccc12)NC(=O)[C@H](CCCCNC(=O)COCCOCCNC(=O)COCCOCCNC(=O)CC[C@H](NC(=O)CC[C@H](NC(=O)CCCCCCCCCCCCCCCCC(=O)O)C(=O)O)C(=O)O)NC(=O)[C@@H](NC(=O)[C@H](Cc1ccccc1)NC(=O)[C@H](CC(=O)O)NC(=O)[C@H](CCC(N)=O)NC(=O)[C@H](C)NC(=O)[C@H](C)NC(=O)[C@H](CCCNC(=N)N)NC(=O)[C@H](CO)NC(=O)[C@H](CC(=O)O)NC(=O)[C@H](CC(C)C)NC(=O)[C@](C)(Cc1ccccc1)NC(=O)[C@H](CCCCN)NC(=O)[C@H](CO)NC(=O)[C@@H](NC(=O)[C@H](CC(=O)O)NC(=O)[C@H](CO)NC(=O)[C@@H](NC(=O)[C@](C)(Cc1ccccc1)NC(=O)[C@H](CO)NC(=O)CNC(=O)[C@H](Cc1c[nH]cn1)NC(=O)C(C)(C)NC(=O)[C@@H](N)Cc1c[nH]cn1)[C@@H](C)O)C(C)C)C(C)C)C(=O)N[C@@H](C)C(=O)N[C@@H](CC(N)=O)C(=O)N[C@H](C(=O)NCC(N)=O)[C@@H](C)O [Peptide 363] (H-H[Aib]HGS[αMeF]TSDVSK[αMeF]LDSRAAQDFVK([AEEA-AEEA-γGlu-γGlu-C18 diacid])WIANTG-NH2; N-terminus assumed) | 5.1 | 0.0183 nM | 47.5 pM |  | 
3 | CC[C@H](C)[C@H](NC(=O)[C@H](Cc1c[nH]c2ccccc12)NC(=O)[C@H](CCCCNC(=O)COCCOCCNC(=O)COCCOCCNC(=O)CC[C@H](NC(=O)CCCCCCCCCCCCCCCCC(=O)O)C(=O)O)NC(=O)[C@@H](NC(=O)[C@H](Cc1ccccc1)NC(=O)[C@H](CC(=O)O)NC(=O)[C@H](CCC(N)=O)NC(=O)[C@H](C)NC(=O)C(C)(C)NC(=O)[C@H](CCCNC(=N)N)NC(=O)[C@H](CO)NC(=O)[C@H](CC(=O)O)NC(=O)[C@H](CC(C)C)NC(=O)[C@](C)(Cc1ccccc1)NC(=O)[C@H](CCCCN)NC(=O)[C@H](CO)NC(=O)[C@@H](NC(=O)[C@H](CC(=O)O)NC(=O)[C@H](CO)NC(=O)[C@@H](NC(=O)[C@](C)(Cc1ccccc1)NC(=O)[C@H](CO)NC(=O)CNC(=O)[C@H](Cc1c[nH]cn1)NC(=O)C(C)(C)NC(=O)[C@@H](N)Cc1c[nH]cn1)[C@@H](C)O)C(C)C)C(C)C)C(=O)N[C@@H](C)C(=O)N[C@@H](CC(N)=O)C(=O)N[C@H](C(N)=O)[C@@H](C)O [Peptide 365, H(Aib)HGS(αMePhe)TSDVSK(αMePhe)LDSR(Aib)AQDFVK(O2Oc-O2Oc-γE-C18diacid)24WIANT-amide] (H-H[Aib]HGS[αMeF]TSDVSK[αMeF]LDSR[Aib]AQDFVK([AEEA-AEEA-γGlu-C18 diacid])WIANT-NH2; N-terminus assumed) |  | 0.0513 nM |  | 0.3 | 8.77 pM
4 | CC[C@H](C)[C@H](NC(=O)[C@H](Cc1c[nH]c2ccccc12)NC(=O)[C@H](CCCCNC(=O)COCCOCCNC(=O)COCCOCCNC(=O)CC[C@H](NC(=O)CCCCCCCCCCCCCCCCCCC(=O)O)C(=O)O)NC(=O)[C@@H](NC(=O)[C@H](Cc1ccccc1)NC(=O)[C@H](CC(=O)O)NC(=O)[C@H](CCC(N)=O)NC(=O)[C@H](C)NC(=O)C(C)(C)NC(=O)[C@H](CCCNC(=N)N)NC(=O)[C@H](CO)NC(=O)[C@H](CC(=O)O)NC(=O)[C@H](CC(C)C)NC(=O)[C@](C)(Cc1ccccc1)NC(=O)[C@H](CCCCN)NC(=O)[C@H](CO)NC(=O)[C@@H](NC(=O)[C@H](CC(=O)O)NC(=O)[C@H](CO)NC(=O)[C@@H](NC(=O)[C@](C)(Cc1ccccc1)NC(=O)[C@H](CO)NC(=O)CNC(=O)[C@H](Cc1c[nH]cn1)NC(=O)C(C)(C)NC(=O)[C@@H](N)Cc1c[nH]cn1)[C@@H](C)O)C(C)C)C(C)C)C(=O)N[C@@H](C)C(=O)N[C@@H](CC(N)=O)C(=O)N[C@H](C(N)=O)[C@@H](C)O [Peptide 368, H(Aib)HGS(αMePhe)TSDVSK(αMePhe)LDSR(Aib)AQDFVK(O2OC-O2OC-γE-C20diacid)24WIANT-amide] (H-H[Aib]HGS[αMeF]TSDVSK[αMeF]LDSR[Aib]AQDFVK([AEEA-AEEA-γGlu-C20 diacid])WIANT-NH2) | 3.1 | 0.186 nM | 290 pM |  | 
5 | CC[C@H](C)[C@H](NC(=O)C(C)(C)NC(=O)[C@H](CCCCNC(=O)COCCOCCNC(=O)COCCOCCNC(=O)CC[C@H](NC(=O)CCCCCCCCCCCCCCCCCCC(=O)O)C(=O)O)NC(=O)[C@@H](NC(=O)[C@H](Cc1ccccc1)NC(=O)[C@H](CC(=O)O)NC(=O)[C@H](CCC(N)=O)NC(=O)[C@H](C)NC(=O)[C@H](C)NC(=O)[C@H](CCCNC(=N)N)NC(=O)[C@H](CO)NC(=O)[C@H](CC(=O)O)NC(=O)[C@H](CC(C)C)NC(=O)[C@](C)(Cc1ccccc1)NC(=O)[C@H](CCCCN)NC(=O)[C@H](CO)NC(=O)[C@@H](NC(=O)[C@H](CC(=O)O)NC(=O)[C@H](CO)NC(=O)[C@@H](NC(=O)[C@](C)(Cc1ccccc1)NC(=O)[C@H](CO)NC(=O)CNC(=O)[C@H](Cc1c[nH]cn1)NC(=O)C(C)(C)NC(=O)[C@@H](N)Cc1c[nH]cn1)[C@@H](C)O)C(C)C)C(C)C)C(=O)N[C@@H](C)C(=O)N[C@@H](CC(N)=O)C(=O)N[C@H](C(N)=O)[C@@H](C)O [Peptide 369] (H-H[Aib]HGS[αMeF]TSDVSK[αMeF]LDSRAAQDFVK([AEEA-AEEA-γGlu-C20 diacid])[Aib]IANT-NH2; N-terminus assumed) | 3.8 | 0.104 nM | 202 pM |  | 
6 | CC[C@H](C)[C@H](NC(=O)[C@H](Cc1c[nH]c2ccccc12)NC(=O)[C@H](CCCCNC(=O)COCCOCCNC(=O)COCCOCCNC(=O)CC[C@H](NC(=O)CCCCCCCCCCCCCCCCC(=O)O)C(=O)O)NC(=O)[C@@H](NC(=O)[C@](C)(Cc1ccccc1)NC(=O)[C@H](CC(=O)O)NC(=O)[C@H](CCC(N)=O)NC(=O)[C@H](C)NC(=O)[C@H](C)NC(=O)[C@H](CCC(N)=O)NC(=O)[C@H](CO)NC(=O)[C@H](CC(=O)O)NC(=O)[C@H](CC(C)C)NC(=O)[C@](C)(Cc1ccccc1)NC(=O)[C@H](CCCCN)NC(=O)[C@H](CO)NC(=O)[C@@H](NC(=O)[C@H](CC(=O)O)NC(=O)[C@H](CO)NC(=O)[C@@H](NC(=O)[C@](C)(Cc1ccccc1)NC(=O)[C@H](CO)NC(=O)CNC(=O)[C@H](Cc1c[nH]cn1)NC(=O)C(C)(C)NC(=O)[C@@H](N)Cc1c[nH]cn1)[C@@H](C)O)C(C)C)C(C)C)C(=O)N[C@@H](C)C(=O)N[C@@H](CC(N)=O)C(=O)N[C@H](C(N)=O)[C@@H](C)O [Peptide 370] (H-H[Aib]HGS[αMeF]TSDVSK[αMeF]LDSQAAQD[αMeF]VK([AEEA-AEEA-γGlu-C18 diacid])WIANT-NH2; N-terminus assumed) | 1.1 | 0.323 nM | 182 pM |  | 
7 | CC[C@H](C)[C@H](NC(=O)[C@H](Cc1c[nH]c2ccccc12)NC(=O)[C@H](CCCCNC(=O)COCCOCCNC(=O)COCCOCCNC(=O)CC[C@H](NC(=O)CC[C@H](NC(=O)CCCCCCCCCCCCCCCCC(=O)O)C(=O)O)C(=O)O)NC(=O)[C@@H](NC(=O)[C@](C)(Cc1ccccc1)NC(=O)[C@H](CC(=O)O)NC(=O)[C@H](CCC(N)=O)NC(=O)[C@H](C)NC(=O)[C@H](C)NC(=O)[C@H](CCCNC(=N)N)NC(=O)[C@H](CO)NC(=O)[C@H](CC(=O)O)NC(=O)[C@H](CC(C)C)NC(=O)[C@](C)(Cc1ccccc1)NC(=O)[C@H](CCCCN)NC(=O)[C@H](CO)NC(=O)[C@@H](NC(=O)[C@H](CC(=O)O)NC(=O)[C@H](CO)NC(=O)[C@@H](NC(=O)[C@](C)(Cc1ccccc1)NC(=O)[C@H](CO)NC(=O)CNC(=O)[C@H](Cc1c[nH]cn1)NC(=O)C(C)(C)NC(=O)[C@@H](N)Cc1c[nH]cn1)[C@@H](C)O)C(C)C)C(C)C)C(=O)N[C@@H](C)C(=O)N[C@@H](CC(N)=O)C(=O)N[C@H](C(N)=O)[C@@H](C)O [Peptide 371] (H-H[Aib]HGS[αMeF]TSDVSK[αMeF]LDSRAAQD[αMeF]VK([AEEA-AEEA-γGlu-γGlu-C18 diacid])WIANT-NH2; N-terminus assumed) | 0.9 | 0.191 nM | 87.2 pM |  | 
